Results as given in ChEMBL document CHEMBL1142074, “In vitro activities of cloxyquin (5-chloroquinolin-8-ol) against Mycobacterium tuberculosis” (2007).
Values after ≈ are worked out from the molar mass of the structure shown.

Experiments:
Format in all cases: functional
[1] = tested on: Mycobacterium tuberculosis; assay: Antimycobacterial activity against Mycobacterium tuberculosis H37Ra ATCC 25177 by microplate alamar blue assay
[2] = tested on: Mycobacterium tuberculosis; assay: Antimycobacterial activity against Mycobacterium tuberculosis isolates from pulmonary tuberculosis patient by microplate alamar blue assay
[3] = tested on: Mycobacterium tuberculosis; assay: Antimycobacterial activity against Mycobacterium tuberculosis H37Rv ATCC 27294 by microplate alamar blue assay
[4] = tested on: Mycobacterium tuberculosis; assay: Antimycobacterial activity against para-aminosalicylic acid-resistant Mycobacterium tuberculosis H37Rv ATCC 35821 by microplate alamar blue assay

| SMILES | MIC [1] [µg/mL] | MIC50 [2] [µg/mL] | MIC90 [2] [µg/mL] | MIC [3] [µg/mL] | MIC [4] [µg/mL] |
| --- | --- | --- | --- | --- | --- |
| Oc1c(Br)cc(Br)c2cccnc12 [BROXYQUINOLINE] | 6.25 (≈ 20.6 µM) |  |  |  |  |
| Cc1ccc2c(Cl)cc(Cl)c(O)c2n1 [CHLORQUINALDOL] | 0.38 (≈ 1.67 µM) |  |  |  |  |
| Oc1c(I)cc(Cl)c2cccnc12 [CLIOQUINOL] | 6.25 (≈ 20.5 µM) |  |  |  |  |
| Oc1ccc(Cl)c2cccnc12 [CLOXYQUIN] | 0.125 (≈ 0.696 µM) | 0.125 (≈ 0.696 µM) | 0.25 (≈ 1.39 µM) | 0.125 (≈ 0.696 µM) | 0.125 (≈ 0.696 µM) |
| Oc1cccc2cccnc12 [OXYQUINOLINE] | 0.125 (≈ 0.861 µM) |  |  |  |  |
